Patent publication US20240025863A1, “SOS1 PROTEIN DEGRADERS, PHARMACEUTICAL COMPOSITIONS THEREOF, AND THEIR THERAPEUTIC APPLICATIONS” (BioTheryX, Inc., priority 2020, published 2024)
Where two headings read alike, the source gives them in different places.

Key:
Format in all cases: cell-based
[1] = test system: Lovo cells (G13D); test: Cell viability assay (CellTiter-Glo), Lovo cells; conditions: Homo sapiens, 72 h, read-out: Inhibition of Cancerous Cells IC50 Lovo (G13D)
Method in brief: (§1)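 Seeding used reduced-serum (2.5% FBS) medium, RPMI 1640 for H358 and SW48 and DMEM for Lovo and SW480. Compound or DMSO was applied for 3 days at 37 °C; CellTiter-Glo was added and luminescence recorded after 10 min shaking.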

[2] = test system: SW480 cells (G12V); test: Cell viability assay (CellTiter-Glo), SW480 cells; conditions: Homo sapiens, read-out: Inhibition of Cancerous Cells IC50 SW480 (G12V)
Method in brief: as §1

[3] = test system: SW48 cells (wt); test: Cell viability assay (CellTiter-Glo), SW48 cells; conditions: Homo sapiens, read-out: Inhibition of Cancerous Cells IC50 SW48 (wt)
Method in brief: as §1

[4] = test system: H23 cells; test: Cell viability assay (CellTiter-Glo), H23 cells; conditions: Homo sapiens, NCI-H23, 72 h, read-out: Inhibition of Cancerous Cells IC50 H23
Experimental: H358, H23, SW48, and AsPC-1 cells were cultured in RPMI 1640 media supplemented with 10% fetal bovine serum, streptomycin, and penicillin. Lovo and SW480 cells were cultured in DMEM media supplemented with 10% fetal bovine serum, streptomycin, and penicillin. The cell lines were plated in their respective medium supplemented with 2.5% fetal bovine serum, streptomycin, and penicillin. All cell lines were plated in white walled 96-well plates at 2,000 cells/well or 384-well plates at 500 cells/well, except Lovo, which were plated at 4,000 or 1,000 cells/well, respectively. The cells were incubated in DMSO (control) or a compound for 3 days at 37° C. under 5% CO2. A CELLTITER-GLO® reagent (100 μL) was then added to each well. After a 10 min incubation with shaking, luminescence was measured using an ENVISION® multimode plate reader.

[5] = test system: H358 cells (G12C); test: Cell viability assay (CellTiter-Glo), H358 cells; conditions: Homo sapiens, NCI-H358, 72 h, read-out: Inhibition of Cancerous Cells IC50 H358 (G12C)
Method in brief: as §1

[6] = test system: Molm-13 cells; test: Inhibition of Molm-13 cells; conditions: Homo sapiens; for inhibition at 1 µM: compound 1 μM, read-out: Inhibition of Molm-13 Cells, percentage of inhibition at 1 μM; for inhibition at 10 µM: compound 10 μM, read-out: Inhibition of Molm-13 Cells, percentage of inhibition at 10 μM
[7] = Lovo cells, 3 days incubation, CellTiter-Glo luminescence
[8] = 72 h, SW480 cells, 3 days incubation, CellTiter-Glo luminescence
[9] = 72 h, SW48 cells, 3 days incubation, CellTiter-Glo luminescence
[10] = H23 cells, 3 days incubation, CellTiter-Glo luminescence
[11] = H358 cells, 3 days incubation, CellTiter-Glo luminescence

Row | Compound | inhibition at 1 µM [6] [%] | inhibition at 10 µM [6] [%] | IC50 [1, 7] [nM] | IC50 [2, 8] [nM] | IC50 [3, 9] [nM] | IC50 [4, 10] [nM] | IC50 [5, 11] [nM] | other results
1 | COc1cc2c(N[C@H](C)c3cccc(Br)c3)nc(C)nc2cc1OCCCCCCCN1CCC(c2cc(F)cc3c2CN(C2CCC(=O)NC2=O)C3=O)CC1 (stereo partly drawn) [Compound A1, 3-(4-(1-(7-((4-(((R)-1-(3-bromophenyl)ethyl)amino)-6-methoxy-2-methylquinazolin-7-yl)oxy)heptyl)piperidin-4-yl)-6-fluoro-1-oxoisoindolin-2-yl)piperidine-2,6-dione] |  |  |  |  |  |  |  | IC50 ([1]; LoVo): 940 nM; IC50 ([2]; SW480, 72 h): 580 nM; IC50 ([3]; SW48, 72 h): 700 nM; IC50 [4]: 1200 nM; IC50 [5]: 2800 nM
2 | COc1cc2c(N[C@H](C)c3cccc(Br)c3)nc(C)nc2cc1OCCCN1CCC(c2cc(F)cc3c2CN(C2CCC(=O)NC2=O)C3=O)CC1 (stereo partly drawn) [Compound A10, 3-(4-(1-(3-((4-(((R)-1-(3-Bromophenyl)ethyl)amino)-6-methoxy-2-methyl-quinazolin-7-yl)oxy)propyl)piperidin-4-yl)-6-fluoro-1-oxoisoindolin-2-yl)piperidine-2,6-dione] | 22 | 99 |  |  |  |  |  | 
3 | CCOc1cc(C(C)(C)C)ccc1C1=N[C@@](C)(c2ccc(Cl)cc2)[C@@](C)(c2ccc(Cl)cc2)N1C(=O)N1CCN(CCC(=O)NCCCCCCCCCOc2cc3nc(C)nc(N[C@H](C)c4cccc(Br)c4)c3cc2OC)CC1 [Compound C7, N-(9-((4-(((R)-1-(3-Bromophenyl)ethyl)amino)-6-methoxy-2-methylquinazolin-7-yl)oxy)nonyl)-3-(4-((4S,5R)-2-(4-(tert-butyl)-2-ethoxyphenyl)-4,5-bis(4-chlorophenyl)-4,5-dimethyl-4,5-dihydro-1H-imidazole-1-carbonyl)piperazin-1-yl)propanamide] |  |  | 6600 | > 10000 | > 10000 | > 10000 | > 10000 | 
4 | CCOc1cc(C(C)(C)C)ccc1C1=N[C@@](C)(c2ccc(Cl)cc2)[C@@](C)(c2ccc(Cl)cc2)N1C(=O)N1CCN(CCC(=O)NCCCCCOc2cc3nc(C)nc(N[C@H](C)c4cccc(Br)c4)c3cc2OC)CC1 [Compound C8, N-(5-((4-(((R)-1-(3-Bromophenyl)ethyl)amino)-6-methoxy-2-methylquinazolin-7-yl)oxy)pentyl)-3-(4-((4S,5R)-2-(4-(tert-butyl)-2-ethoxyphenyl)-4,5-bis(4-chlorophenyl)-4,5-dimethyl-4,5-dihydro-1H-imidazole-1-carbonyl)piperazin-1-yl)propanamide] |  |  | 540 | 1400 | 1100 | > 10000 | 2800 | 
5 | COc1cc2c(N[C@H](C)c3cccs3)nc(C)nc2cc1OCCCCCCCCC(=O)N[C@H](C(=O)N1C[C@H](O)C[C@H]1C(=O)NCc1ccc(-c2scnc2C)cc1)C(C)(C)C [Compound D5, (2S,4R)-4-Hydroxy-1-((S)-2-(9-((6-methoxy-2-methyl-4-(((R)-1-(thiophen-2-yl)ethyl)amino)quinazolin-7-yl)oxy)nonanamido)-3,3-dimethylbutanoyl)-N-(4-(4-methylthiazol-5-yl)benzyl)pyrrolidine-2-carboxamide] | 22 | 99 |  |  |  |  |  | 
6 | COc1cc2nc(C)nc(N[C@H](C)c3cccc(Br)c3)c2cc1OC [drawing 284, reference compound] |  |  | 2200 | 2800 | 3600 | 4800 | 4100 | 
7 | COc1cc2nc(C)nc(N[C@H](C)c3cccc(Br)c3)c2cc1OC [drawing 287] | 17 | 91 |  |  |  |  |  | 
